Assay results from patent US11110082B2, “Tyrosine kinase inhibitors” (Rigel Pharmaceuticals, Inc., priority 2016, dated 2021).

What follows are compounds tested against T1, MerTK (Homo sapiens, UniProt Q12866) (assay: PAKT HTRF-HUVEC assay (pAkt Ser473 HTRF after anti-human MerTK-XL stimulation)). Conditions: HUVEC cells, 1 hour compound, stimulated with anti-human MerTK-XL 1 ug/mL for 10 minutes, read-out: inhibition of MerTK.
T1 construct: Seed HUVECs (10K cells/well) in EBM-2 complete media; host or cells: HUVEC (primary human umbilical vein endothelial cells)
T1 sequence (Q12866 21-999): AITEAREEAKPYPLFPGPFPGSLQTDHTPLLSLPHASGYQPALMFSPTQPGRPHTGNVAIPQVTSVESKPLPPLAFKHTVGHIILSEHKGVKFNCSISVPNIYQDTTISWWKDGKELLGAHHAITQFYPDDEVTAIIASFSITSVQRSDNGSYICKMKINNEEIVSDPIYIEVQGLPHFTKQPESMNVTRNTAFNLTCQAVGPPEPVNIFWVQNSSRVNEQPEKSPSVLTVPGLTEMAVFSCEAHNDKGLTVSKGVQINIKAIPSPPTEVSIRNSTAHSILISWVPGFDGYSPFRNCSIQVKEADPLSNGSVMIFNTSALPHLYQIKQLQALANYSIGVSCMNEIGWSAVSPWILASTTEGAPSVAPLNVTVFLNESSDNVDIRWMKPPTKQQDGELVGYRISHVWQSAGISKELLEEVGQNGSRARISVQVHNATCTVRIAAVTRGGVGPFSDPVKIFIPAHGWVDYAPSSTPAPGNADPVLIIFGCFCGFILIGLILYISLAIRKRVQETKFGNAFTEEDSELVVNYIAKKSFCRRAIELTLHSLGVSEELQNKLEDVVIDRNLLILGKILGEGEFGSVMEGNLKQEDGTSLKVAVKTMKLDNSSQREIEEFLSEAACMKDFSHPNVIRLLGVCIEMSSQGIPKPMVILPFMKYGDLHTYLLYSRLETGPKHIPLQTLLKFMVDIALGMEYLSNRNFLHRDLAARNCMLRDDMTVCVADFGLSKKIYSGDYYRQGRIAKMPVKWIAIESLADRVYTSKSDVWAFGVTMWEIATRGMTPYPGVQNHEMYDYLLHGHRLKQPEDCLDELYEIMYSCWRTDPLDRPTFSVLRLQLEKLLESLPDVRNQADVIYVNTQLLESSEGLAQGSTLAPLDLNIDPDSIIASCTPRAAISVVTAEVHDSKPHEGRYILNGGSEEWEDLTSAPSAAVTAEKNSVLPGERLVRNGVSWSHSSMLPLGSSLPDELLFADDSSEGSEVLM
Assay type: cell-based
In short: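 Akt Ser473 phosphorylation measured by HTRF in lysates of serum-starved HUVECs. Cells received compound for 1 h at 37° C before a 10-min challenge with antibody-cross-linked anti-MerTK (1 ug/mL final); EC50 derived by curve fit.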

EC50 [nM]	Structure (SMILES)
36.4	C[C@@H]1CN(Cc2ccc3c(c2)c(=O)n([C@H]2CC[C@H](O)CC2)c2nc(NCC4CC4)ncc32)CCN1C [Compound 175]
45.9	CC(C)CCNc1ncc2c3ccc(CN4CCN(C)CC4)cc3c(=O)n([C@H]3CC[C@H](O)CC3)c2n1 [Compound 129]
957	CC(C)Nc1ncc2c3ccc(Cl)cc3c(=O)n([C@H]3CC[C@H](O)CC3)c2n1 [Compound 193]
2.4	O=c1c2cc(CN3CCC(c4ccncc4)CC3)ccc2c2cnc(NC3CCC3)nc2n1[C@H]1CC[C@H](O)CC1 [Compound 227, trans-3-(Cyclobutylamino)-5-(4-hydroxycyclohexyl)-8-((4-(pyridin-4-yl)piperidin-1-yl)methyl)pyrimido[4,5-c]isoquinolin-6(5H)-one]
76.4	CN1CCC(Nc2ccc3c(c2)c(=O)n([C@H]2CC[C@H](O)CC2)c2nc(NCC4CC4)ncc32)CC1 [Compound 189, trans-3-((Cyclopropylmethyl)amino)-5-(4-hydroxycyclohexyl)-8-((1-methylpiperidin-4-yl)amino)pyrimido[4,5-c]isoquinolin-6(5H)-one]
140	CN1CCN(Cc2ccc3c(c2)c(=O)n([C@H]2CCC[C@H](O)CC2)c2nc(NCC4CC4)ncc32)CC1 [Compound 230, 3-((cyclopropylmethyl)amino)-5-((1S,4S)-4-hydroxycycloheptyl)-8-((4-methylpiperazin-1-yl)methyl)pyrimido[4,5-c]isoquinolin-6(5H)-one]
296	O=c1c2cc(N3CCn4ncnc4C3)ccc2c2cnc(NCC3CC3)nc2n1[C@H]1CC[C@H](O)CC1 [Compound 101, trans-3-((Cyclopropylmethyl)amino)-8-(5,6-dihydro-[1,2,4]triazolo[1,5-a]pyrazin-7(8H)-yl)-5-(4-hydroxycyclohexyl)pyrimido [4,5-c]isoquinolin-6(5H)-one]
152	CCCCNc1ncc2c3ccc(N4CCN(C)CC4)cc3c(=O)n([C@H]3CC[C@@](C)(O)CC3)c2n1 [Compound 89, cis-3-(Butylamino)-5-(4-hydroxy-4-methylcyclohexyl)-8-(4-methylpiperazin-1-yl)pyrimido[4,5-c]isoquinolin-6(5H)-one]
97.5	CC(C)N1CCN(c2ccc3c(c2)c(=O)n([C@H]2CC[C@H](O)CC2)c2nc(NCC4CC4)ncc32)CC1 [Compound 109, trans-3-((Cyclopropylmethyl)amino)-5-(4-hydroxycyclohexyl)-8-(4-isopropylpiperazin-1-yl)pyrimido[4,5-c]isoquinolin-6(5H)-one]
129	O=c1c2cc(N3CCN4CCC[C@@H]4C3)ccc2c2cnc(NCC3CC3)nc2n1[C@H]1CC[C@H](O)CC1 [Compound 103, trans-3-((Cyclopropylmethyl)amino)-8-((R)-hexahydropyrrolo[1,2-a]pyrazin-2(1H)-yl)-5-(4-hydroxycyclohexyl)pyrimido [4,5-c]isoquinolin-6(5H)-one]
167	NC(=O)C1CCN(Cc2ccc3c(c2)c(=O)n([C@H]2CC[C@H](O)CC2)c2nc(NCC4CC4)ncc32)CC1 [Compound 203, trans-1-((3-((Cyclopropylmethyl)amino)-5-(4-hydroxycyclohexyl)-6-oxo-5,6-dihydropyrimido[4,5-c]isoquinolin-8-yl)methyl)piperidine-4-carboxamide]
64.6	O=c1c2cc(CN3CCn4ncnc4C3)ccc2c2cnc(NCC3CC3)nc2n1[C@H]1CC[C@H](O)CC1 [Compound 39, trans-3-((Cyclopropylmethyl)amino)-8-((5,6-dihydro-[1,2,4]triazolo[1,5-a]pyrazin-7(8H)-yl)methyl)-5-(4-hydroxycyclohexyl)pyrimido [4,5-c]isoquinolin-6(5H)-one]
4040	CN1CCN(Cc2ccc3c(c2)c(=O)n([C@H]2CC[C@H](C(=O)O)CC2)c2nc(NCC4CC4)ncc32)CC1 [Compound 135, trans-4-(3-((Cyclopropylmethyl)amino)-8-((4-methylpiperazin-1-yl)methyl)-6-oxopyrimido[4,5-c]isoquinolin-5(6H)-yl)cyclohexane-1-carboxylic Acid]
46.7	O=c1c2cc(CN3CCN(C4COC4)CC3)ccc2c2cnc(NCC3CC3)nc2n1[C@H]1CC[C@H](O)CC1 [Compound 147]
22.5	O=c1c2cc(CN3CCN(c4ccncn4)CC3)ccc2c2cnc(NCC3CC3)nc2n1[C@H]1CC[C@H](O)CC1 [Compound 216, trans-3-((Cyclopropylmethyl)amino)-5-(4-hydroxycyclohexyl)-8-((4-(pyrimidin-4-yl)piperazin-1-yl)methyl)pyrimido[4,5-c]isoquinolin-6(5H)-one]
697	CCC1(CNc2ncc3c4ccc(CN5CCOCC5)cc4c(=O)n([C@H]4CC[C@H](O)CC4)c3n2)CCC1 [Compound 19, trans-3-(((1-Ethylcyclobutyl)methyl)amino)-5-(4-hydroxycyclohexyl)-8-(morpholinomethyl)pyrimido [4,5-c]isoquinolin-6(5H)-one]
8030	O=c1c2cc(N3CC4(COC4)C3)ccc2c2cnc(NC3CC(F)(F)C3)nc2n1[C@H]1CC[C@H](O)CC1 [Compound 67, trans-3-((3,3-difluorocyclobutyl)amino)-5-(4-hydroxycyclohexyl)-8-(2-oxa-6-azaspiro[3.3]heptan-6-yl)pyrimido[4,5-c]isoquinolin-6(5H)-one]
220	CCCCNc1ncc2c3ccc(CN4CCN(C)CC4)cc3c(=O)n([C@H]3CC[C@H](NCC(N)=O)C3)c2n1 [Compound 237, 2-(((1S,3S)-3-(3-(butylamino)-8-((4-methylpiperazin-1-yl)methyl)-6-oxopyrimido[4,5-c]isoquinolin-5(6H)-yl)cyclopentyl)amino)acetamide]
36.2	O=c1c2cc(CN3CCN(c4ccncc4)CC3)ccc2c2cnc(NCC3CC3)nc2n1[C@H]1CC[C@H](O)CC1 [Compound 124, trans-3-((Cyclopropylmethyl)amino)-5-(4-hydroxycyclohexyl)-8-((4-(pyridin-4-yl)piperazin-1-yl)methyl)pyrimido[4,5-c]isoquinolin-6(5H)-one]
218	CN1CC2(C1)CN(c1ccc3c(c1)c(=O)n([C@H]1CC[C@H](O)CC1)c1nc(NC4CC(F)C4)ncc31)C2 (stereo partly drawn) [Compound 74, trans-3-((3-Fluorocyclobutyl)amino)-5-(4-hydroxycyclohexyl)-8-(6-methyl-2,6-diazaspiro[3.3]heptan-2-yl)pyrimido[4,5-c]isoquinolin-6(5H)-one]
309	O=c1c2cc(CN3CCNCC3)ccc2c2cnc(NCC3CC3)nc2n1[C@H]1CC[C@H](O)CC1 [Compound 54, trans-3-((Cyclopropylmethyl)amino)-5-(4-hydroxycyclohexyl)-8-(piperazin-1-ylmethyl)pyrimido[4,5-c]isoquinolin-6(5H)-one]
70.4	C[C@@H]1CN(c2ccc3c(c2)c(=O)n([C@H]2CC[C@H](O)CC2)c2nc(NCC4CC4)ncc32)CCN1C [Compound 106, trans-3-((Cyclopropylmethyl)amino)-8-((R)-3,4-dimethylpiperazin-1-yl)-5-(4-hydroxycyclohexyl)pyrimido [4,5-c]isoquinolin-6(5H)-one]
66	CCCCNc1ncc2c3ccc(CN4CCNCC4)cc3c(=O)n([C@H]3CC[C@H](O)CC3)c2n1 [Compound 44, trans-3-(Butylamino)-5-(4-hydroxycyclohexyl)-8-(piperazin-1-ylmethyl)pyrimido[4,5-c]isoquinolin-6(5H)-one]
14.5	O=c1c2cc(CN3CCN(c4ccncc4)CC3)ccc2c2cnc(NCCC3CC3)nc2n1[C@H]1CC[C@H](O)CC1 [Compound 222, trans-3-((2-Cyclopropylethyl)amino)-5-(4-hydroxycyclohexyl)-8-((4-(pyridin-4-yl)piperazin-1-yl)methyl)pyrimido[4,5-c]isoquinolin-6(5H)-one]
292	CN1CCN(Cc2ccc3c(c2)c(=O)n([C@H]2CC[C@H](OC(N)=O)CC2)c2nc(NCC4CC4)ncc32)CC1 [Compound 181]
